# What was measured:
# [1] = system: asexual blood stage of Pf; experiment: Pf asexual blood stage potency (Pf IC50); type: cell-based, Plasmodium falciparum
# From the text: The TAPs series emerged from a high-throughput screen (HTS) of 500,000 compounds from the AstraZeneca corporate library against the asexual blood stage of Pf using a high-content image-based approach. The procedure for synthesis of compounds 1-6, 10, 11 using a scheme similar to Fig. 1 is provided in Supplementary Note 1. The initial hit provided multiple diversification points for a robust lead optimization campaign. […] Compounds with 2-pyridyl modification at the 2-amino position of pyrimidine core improved potency and solubility at the cost of potent activity against hERG and acetylcholine esterase (AChE; compounds 3-6; Table 1). […] The observed hERG and AChE selectivity improvement with 7 could be attributed to the polar nature of the pyrazole group and its role in reducing the pKa of the core pyrimidine ring. […] To assess the potential for cross-resistance, representative TAPs were screened against a panel of clinical isolates and in vitro-generated mutant strains displaying varying mechanisms of resistance to antimalarial agents currently in use and under development, respectively, (Supplementary Tables 1–3).
# Pf3D7^0087/N9 = experiment: animal or person; type: in vivo, Plasmodium falciparum
# From the text: All animal studies were ethically reviewed and carried out in accordance with European Directive 86/609/EEC and the GSK Policy on the Care, Welfare and Treatment of Animals. During this experiment, female mice were used from the batch NSGJ 01/1 (The Jackson Laboratory, USA). The therapeutic efficacy of compound 12 against Pf3D7^0087/N9 was studied using a ‘4-day test’ reported earlier. Briefly, NODscidIL2Rγ^null mice engrafted with human erythrocytes were infected with 20 × 10^6 Pf-infected erythrocytes. Infections were performed by i.v. inoculation. All mice were randomly assigned to their corresponding treatment. The treatment started at day 3 and finished at day 6 after infection. The compound was administered orally as a suspension in 0.5% w/v hydroxypropyl methylcellulose (HPMC) with 0.1% v/v Tween 80, using an oral gavage at a maximum dose volume of 20 ml kg^−1. Vehicle alone was administered in untreated mice. In all cases, parasitemia was assessed in samples from peripheral blood obtained at days 3–7 after infection. A qualitative analysis of the effect of treatment on Pf3D7^0087/N9 was assessed by microscopy and flow cytometry. Fresh samples of peripheral blood from Pf-infected mice were stained with TER-119-Phycoerythrine (marker of murine erythrocytes) and SYTO-16 (nucleic acid dye) and then analysed by flow cytometry (FACS Calibur, BD). Microscopy analysis was performed with Giemsa-stained blood smears from samples taken at days 5 and 7 (48 and 96 h after starting treatment, respectively).
# PK-PD model for the metabolite (compound 9) alone. Pharmacokinetic data from the Pf/SCID model was linked to efficacy using the following equation5.
# Where P [log (total no. of parasites / mouse)], Kgro (growth rate constant), Pmax (log (maximum no. of parasites / mouse)), Kkill (maximum kill rate constant), H (Hill slope), EC50 (concentration required for achieving half maximal kill rate) and Ce (concentration of the drug in the effect compartment). Percent parasitemia values were converted into total number of parasites in mouse blood assuming […] (9.23 log10) RBCs per mouse. The lower limit of quantitation for % parasitemia was 0.01% or 5.23 log10. Effect compartment was used for modelling the delay observed in efficacy at a lower dose. […]
# [2] = PK in the blood of infected Pf/SCID mice; type: in vivo, mouse; conditions: for CL/F: SCID, mouse, whole blood
# Protocol: Peripheral blood samples (25 μl) were taken at different times (0.25, 0.5, 1, 2, 4, 6, 8 and 23 h), mixed with 25 μl of H2O Mili-Q and immediately frozen on dry ice. The frozen samples were stored at −80 °C until analysis. Vehicle-treated mice experienced the same blood-sampling regimen. Blood samples were processed by liquid–liquid extraction by mixing 10 μl diluted blood with 180 μl AcN:MeOH (80:20; v-v) mixture. Quantitative analysis by Liquid chromatography-tandem mass spectrometry (LC-MS/MS) was performed using UPLC (Waters) and Sciex API4000. The lower limit of quantification in this assay was 0.005 μg ml^−1.
# Pf 7G8 = experiment: microbe, parasite or virus in culture; type: cell-based; conditions: Plasmodium falciparum
# From the text: (§1) tested in duplicate from two independent experiments using a SYBR-Green based assay2.
# (§2) (1 picture or pasted object on this page, not shown here)
# Pf DD2 = experiment: microbe, parasite or virus in culture; type: cell-based; conditions: Plasmodium falciparum
# From the text: as §1, §2
# Pf K1 = experiment: microbe, parasite or virus in culture; type: cell-based; conditions: Plasmodium falciparum
# From the text: as §1, §2
# Pf NF54 = experiment: microbe, parasite or virus in culture; type: cell-based; conditions: Plasmodium falciparum
# From the text: as §1, §2
# Pf SB1 = experiment: microbe, parasite or virus in culture; type: cell-based; conditions: Plasmodium falciparum
# From the text: as §1, §2
# Pf W2 = experiment: microbe, parasite or virus in culture; type: cell-based; conditions: Plasmodium falciparum
# From the text: as §1, §2
# Dd2 = experiment: [3H]-hypoxanthine incorporation assay, Dd2; type: cell-based, Plasmodium falciparum; conditions: Plasmodium falciparum, DD2
# Protocol: (§3) 9 and 12 were tested for their antiplasmodial activity against a panel of Pf strains known to harbour mutations conferring resistance to novel agents under clinical development. Parasite growth inhibition is measured using the [3H]-hypoxanthine incorporation assay. IC50s are established for each strain (n ≥2) and compared to the IC50 of Dd2 (standard pan-resistant
# Dd2 bc-1 ELQ-300 = experiment: [3H]-hypoxanthine incorporation assay, Dd2 bc-1 ELQ-300 resistant; type: cell-based, Plasmodium falciparum; conditions: Plasmodium falciparum, DD2
# Protocol: as §3, with “Supplementary Table 3: Compound 9 and 12 retain their activity against Pf strains harbouring mutations to novel antimalarial agents in clinical development. Compound 9” for “9”, “pan-resistant […]” for “pan-resistant”
# Dd2 PI4K Cpd 1 = experiment: [3H]-hypoxanthine incorporation assay, Dd2 PI4K Cpd 1 resistant; type: cell-based; conditions: Plasmodium falciparum
# Protocol: as §3, with “Supplementary Table 3: Compound 9 and 12 retain their activity against Pf strains harbouring mutations to novel antimalarial agents in clinical development. Compound 9” for “9”, “pan-resistant […]” for “pan-resistant”
# Dd2 DHODH DSM265 = experiment: [3H]-hypoxanthine incorporation assay, Dd2 DHODH DSM265 resistant; type: cell-based; conditions: Plasmodium falciparum
# Protocol: as §3, with “Supplementary Table 3: Compound 9 and 12 retain their activity against Pf strains harbouring mutations to novel antimalarial agents in clinical development. Compound 9” for “9”, “pan-resistant […]” for “pan-resistant”
# Dd2 PfATP4 NITD609 = experiment: [3H]-hypoxanthine incorporation assay, Dd2 PfATP4 NITD609 resistant; type: cell-based; conditions: Plasmodium falciparum
# Protocol: as §3, with “Supplementary Table 3: Compound 9 and 12 retain their activity against Pf strains harbouring mutations to novel antimalarial agents in clinical development. Compound 9” for “9”, “pan-resistant […]” for “pan-resistant”
# PfATP4 Cpd 2 = experiment: [3H]-hypoxanthine incorporation assay, PfATP4 Cpd 2 resistant; type: cell-based; conditions: Plasmodium falciparum
# Protocol: as §3, with “Supplementary Table 3: Compound 9 and 12 retain their activity against Pf strains harbouring mutations to novel antimalarial agents in clinical development. Compound 9” for “9”, “pan-resistant […]” for “pan-resistant”
# PfATP4 Cpd 3 = experiment: [3H]-hypoxanthine incorporation assay, PfATP4 Cpd 3 resistant; type: cell-based; conditions: Plasmodium falciparum
# Protocol: as §3, with “Supplementary Table 3: Compound 9 and 12 retain their activity against Pf strains harbouring mutations to novel antimalarial agents in clinical development. Compound 9” for “9”, “pan-resistant […]” for “pan-resistant”
# Cpd 4 Unpublished Target = experiment: [3H]-hypoxanthine incorporation assay, Cpd 4 Unpublished Target resistant; type: cell-based; conditions: Plasmodium falciparum
# Protocol: as §3, with “Supplementary Table 3: Compound 9 and 12 retain their activity against Pf strains harbouring mutations to novel antimalarial agents in clinical development. Compound 9” for “9”, “pan-resistant […]” for “pan-resistant”
# [3] = 10 mg kg-1, one compartment POPK model
# [4] = 30 mg kg-1, one compartment POPK model
structure (smiles),measurement,setting,value
"Cc1nc(Nc2ncc(N3CCNC(C)C3)c(Nc3cc(C)n(C)n3)n2)cc(C2CC2)c1F.Cl.Cl (stereo not shown) [compound 9, N2-(4-cyclopropyl-5-fluoro-6-methylpyridin-2-yl)-N4-(1,5-dimethyl-1H-pyrazol-3-yl)-5-(3-methylpiperazin-1-yl)pyrimidine-2,4-diamine dihydrochloride]",IC50,[1]; Plasmodium falciparum,14 nM
same,improvement in Pf potency,[1]; compound 9 relative to compound 7,> 10 fold
same,Kkill (maximum kill rate constant),Pf3D7^0087/N9; PK-PD model for compound 9 alone,0.2 h⁻¹
same,EC50,"Pf3D7^0087/N9; Plasmodium falciparum, in Mus musculus, read-out: EC50 (blood concentration for half-maximal kill rate)",309 nM
same,Kkillm,"Pf3D7^0087/N9; metabolite, Fixed",0.2 h⁻¹
same,Ka,[2]; [3],0.29 h⁻¹
same,Ka,[2]; [4],0.62 h⁻¹
same,V/F,[2]; [4],53 L/kg
same,CL/F,[2]; [3],122 mL/min/kg
same,CL/F,[2]; [4],117 mL/min/kg
same,V/F,"[2]; compound 9, 10 mg kg-1, one compartment POPK model",70 L/kg
same,CLm,"[2]; metabolite, Fixed",1330 mL/min/kg
same,Ke0m,"[2]; metabolite, Fixed",0.06 h⁻¹
same,Vcm,"[2]; metabolite, Fixed",29 L/kg
same,IC50,Pf 7G8,26.5 ± 5 nM
same,IC50,Pf DD2,19.6 ± 7 nM
same,IC50,Pf K1,33.8 ± 5 nM
same,IC50,Pf NF54,18.5 ± 5 nM
same,IC50,Pf SB1,25.6 ± 13 nM
same,IC50,Pf W2,28.1 ± 8 nM
same,IC50,Dd2,6 nM
same,IC50,Dd2 bc-1 ELQ-300,10 nM
same,IC50,Dd2 PI4K Cpd 1,10 nM
same,IC50,Dd2 DHODH DSM265,9.1 nM
same,IC50,Dd2 PfATP4 NITD609,8.6 nM
same,IC50,PfATP4 Cpd 2,11 nM
same,IC50,PfATP4 Cpd 3,11 nM
same,IC50,Cpd 4 Unpublished Target,9.4 nM
